Measurements reported in patent US20240041878A1, “APELIN RECEPTOR MODULATORS FOR TREATMENT OF A DISORDER OR DISEASE ASSOCIATED WITH BBB PERMEABILITY” (BioAge Labs, Inc., priority 2022, published 2024).

Tests used:
Embryonic rat neurons = experiment: Neuronal survival after RAC-conditioned media (ApoTox-Glo Triplex Assay); assay type: cell-based
Text: Mice were handled in accordance with principles and guidelines established by the “Guide for the Care and Use of Laboratory Animals” and overseen by the BioAge Lab's Institutional Animal Care and Use Committee (IACUC). Mouse primary astrocytes were isolated and cultured in 0.01% poly-L-lysine coated 6- or 12-well tissue culture plates at 200,000 or 120,000 cells/well, respectively, with astrocyte growth media as previously described in (Lundquist et al. 2022. Knockdown of Astrocytic Monocarboxylate Transporter 4 in the Motor Cortex Leads to Loss of Dendritic Spines and a Deficit in Motor Learning. Mol Neurobiol 59, 1002-1017). Embryonic rat neurons were purchased from ScienCell (Cat. #R1550) and cultured in neuronal media (ScienCell, Cat. #1521) per manufacturer's protocol, with slight modifications. Briefly, neurons were thawed and resuspended in neuronal media with the addition of 1 μg laminin (Sigma, Cat. #L2020) per 1 mL culture media, then plated in 0.01% poly-L-lysine coated 96-well tissue culture plates at 60,000 cells/well. […]
For analysis of neuronal survival, culture media was collected after RAC treatment and added directly to rat neurons (previously described above) for 24 hours. After exposure, neuronal viability was assessed with the ApoTox-Glo Triplex Assay according to manufacturer's protocol (Promega, Cat. #G6320). […]

[1] = system: primary SOD1^G93A mouse astrocytes; experiment: Primary SOD1^G93A mouse astrocytes: cytokine release and NF-κB signaling; assay type: cell-based
Text: The study characterizes effects of BGE-105 on primary astrocytes derived from wildtype and SOD1^G93A mice in vitro. This includes measuring effects on gene expression, secretion of inflammatory cytokines, and glutamate uptake.
The study utilizes primary mouse astrocyte and neuron cultures generated from the SOD1^G93A mouse model of familial ALS as previously described (Lundquist et al. 2019. Exercise induces region-specific remodeling of astrocyte morphology and reactive astrocyte gene expression patterns in male mice. Journal of Neuroscience Research, 97(9), 1081-1094) with some modifications. Briefly, whole spinal cords are resected from PNDO-4 (postnatal day) SOD1^G93A+ pups and wildtype littermates. […]
Astrocytes from wildtype and SOD1^G93A mice are first studied in isolation to compare transcriptomic and cytokine release profiles. […] ACM (astrocyte-conditioned media) are analyzed for release of cytokines and neurotrophic factors using Mouse Proteome Profiler Arrays (R&D Systems), and commercially available ELISAs (for select cytokines from protein arrays). Astrocytic gene expression are analyzed by RT-qPCR, and astrocyte protein expression are analyzed by western blotting as previously described (Lundquist et al, 2022).

wildtype motor neurons = experiment: Neurons exposed to SOD1^G93A astrocyte-conditioned media or co-cultured with SOD1^G93A astrocytes; assay type: cell-based, mouse
Experimental: This study conducts co-culture experiments using SOD1^G93A astrocytes and wildtype motor neurons to determine effects of apelin signaling on rescue of neuronal survival and function. Co-culture experiments are conducted by measuring viability, neuronal homeostasis, and morphological endpoints.
Neurons are isolated from mouse spinal cords as previously described in Example 12 above. Non-astrocytic flowthrough following column-based cell isolation (MACS) are collected and cultured in serum-free, neuron-selective media in 12- or 96-well plates for at least 14 days before experimentation. For specific selection of spinal cord motor neurons, wildtype C57BL/6J mouse PNDO or adult spinal cords are processed using published methods (Beaudet, 2015).
Neurons are cultured for at least 14 days before the start of experimentation. First, ACM from wildtype or SOD astrocytes exposed to 250 nM BGE-105 (or vehicle) are added to neurons seeded in 96 well plates for 6, 12, 24, or 48 hours followed by analysis of neuronal survival using the ApoTox-Glo Triplex kit (Promega) to determine optimal exposure time. […]

apelin receptor = biological target: T1, apelin receptor (Homo sapiens, UniProt P35414); details: Ason et al., JCI Insight 2020; cited from earlier work
T1 sequence (P35414 1-380): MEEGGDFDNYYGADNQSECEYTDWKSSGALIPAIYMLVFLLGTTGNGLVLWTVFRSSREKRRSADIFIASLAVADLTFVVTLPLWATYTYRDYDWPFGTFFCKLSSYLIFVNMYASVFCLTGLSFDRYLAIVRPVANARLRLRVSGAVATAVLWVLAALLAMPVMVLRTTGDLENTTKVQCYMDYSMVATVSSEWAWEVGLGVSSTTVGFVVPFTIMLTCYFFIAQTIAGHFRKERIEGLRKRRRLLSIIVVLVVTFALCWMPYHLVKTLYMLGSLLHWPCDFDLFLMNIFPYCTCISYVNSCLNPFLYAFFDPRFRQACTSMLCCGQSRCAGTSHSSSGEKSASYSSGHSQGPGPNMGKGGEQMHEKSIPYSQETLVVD

rats = details: Ason et al., JCI Insight 2020; cited from earlier work

COc1cccc(OC)c1-n1c(NS(=O)(=O)[C@@H](C)[C@H](C)c2ncc(C)cn2)nnc1-c1cncc(C)c1 [BGE-105, (2S,3R)—N-(4-(2,6-dimethoxyphenyl)-5-(5-methyl-3-pyridinyl)-4H-1,2,4-triazol-3-yl)-3-(5-methyl-2-pyrimidinyl)-2-butanesulfonamide]
cell viability relative to RAC, exogenous BGE-105 (Embryonic rat neurons; RAC+ex105 [50 nM], added directly to neurons in addition to the toxic RAC media): did not provide statistical change
increase of cellular viability as compared to RAC (Embryonic rat neurons; media of astrocytes treated with RAC+BGE105 [250 nM], added to neurons 24 hours): about 30%
release of proinflammatory cytokines into astrocyte conditioned media (ACM) ([1]; 250 nM BGE-105, 24 hours): release less proinflammatory cytokines
NF-κB signaling activity ([1]; untreated versus BGE-105 treated SOD1^G93A astrocytes): changes to NF-κB signaling activity
neuron cell death caused by SOD1^G93A ACM (wildtype motor neurons; pretreatment of SOD1^G93A astrocytes with 250 nM BGE-105): attenuated
synaptic protein expression and neuronal structural integrity (wildtype motor neurons; wildtype neurons cultured with SOD1^G93A astrocytes, 250 nM BGE-105): preserves synaptic protein expression and neuronal structural integrity
activation of the apelin receptor (apelin receptor): known to activate
cardiovascular response (rats): induces a cardiovascular response
